Measured values taken from patent publication US20180155757A1, “IDENTIFICATION OF BACTERIA THAT ARE RESISTANT TO CARBAPENEMS BY MEMBRANE IMPERVIOUSNESS” (BIOMÉRIEUX, priority 2015, published 2018).
Read-outs that look alike come from different tables or passages of the source.

Assays:
Experiment in all cases: Etest MIC of indicator carbapenems on MH II agar without/with PMBN
Type in all cases: cell-based
[1] = system: Enterobacter aerogenes EA 15038 (porin+); conditions: Klebsiella aerogenes, EA 15038 (porin+), read-out: MIC
Protocol: (§1) The determinations of antibiotic MIC were carried out on solid culture media with the Etest® method. To do this, Etest® strips (bioMérieux, France) were used: • Etest® Imipenem IM 32, and • Etest® Ertapenem ETP 32, and also solid culture media, differing from one another by virtue of their non-inhibitory concentrations of PMBN.
(§2) These solid culture media are prepared in Petri dishes (0=145 mm; V=50 ml) on a base of MH II Agar (Becton Dickinson®, United States), more or less supplemented with PMBN. The PMBN concentrations range from 0 up to concentrations equivalent to one fifth of the MIC of PMBN (⅕ MICPMBN).
(§3) Using a swab and the Retro C80™ rota-plater (bioMérieux, France), the culture media were inoculated with the bacteria, originating from an inoculum of 0.5 McFarland, prepared in 0.85% NaCl solution from colonies subcultured the day before on MH II agar.
(§4) The various Etest® strips are then deposited on the surface of the culture media. After 16 to 20 hours of incubation at 35° C., the MICS were read.

[2] = system: Enterobacter aerogenes EA 2 (porin+); conditions: Klebsiella aerogenes, EA 2 (porin+), read-out: MIC
Protocol: as §1, §2, §3, §4

[3] = system: E. aerogenes 1204050 (membrane impermeability); conditions: in µg/mL
Method in brief: (§5)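 MH II agar ± PMBN (0 to ⅕ MICPMBN, non-inhibitory), swabbed with 0.5 McFarland inoculum; IM 32, ETP 32, MP 32 Etest strips applied; read at 16–20 h, 35° C.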

[4] = system: E. cloacae 1204051 (membrane impermeability)
Method in brief: as §5

[5] = system: E. cloacae 1204052 (membrane impermeability)
Method in brief: as §5

[6] = system: E. cloacae 1204053 (membrane impermeability)
Method in brief: as §5

[7] = system: E. cloacae 1204056 (membrane impermeability)
Method in brief: as §5

[8] = system: E. cloacae 1204058 (membrane impermeability); conditions: in µg/mL
Method in brief: as §5

[9] = system: E. cloacae 1204153 (membrane impermeability); conditions: in µg/mL
Method in brief: as §5

[10] = system: E. coli 1008078 (VIM producer)
Method in brief: as §5

[11] = system: E. coli SAB 100 (porin−); conditions: Escherichia coli
Method in brief: as §5

[12] = system: E. coli SAB 108 (porin−); conditions: Escherichia coli
Method in brief: as §5

[13] = system: Enterobacter aerogenes EA 27 (porin−); conditions: Klebsiella aerogenes, read-out: MIC
Method in brief: as §5

[14] = system: Enterobacter aerogenes EA 5 (porin−); conditions: Klebsiella aerogenes
Method in brief: as §5

[15] = system: K. pneumoniae 1012142 (KPC-2 producer)
Method in brief: as §5

[16] = system: K. pneumoniae 1103183 (NDM producer)
Method in brief: as §5

[17] = system: K. pneumoniae 1108003 (KPC-3 producer)
Method in brief: as §5

[18] = system: K. pneumoniae 1204035 (membrane impermeability); conditions: in µg/mL
Method in brief: as §5

[19] = system: K. pneumoniae 1204039 (membrane impermeability)
Method in brief: as §5

C[C@@H](O)[C@H]1C(=O)N2C(C(=O)O)=C(SCCN=CN)C[C@H]12 [IM, imipenem]
MIC ([1]; [PMBN] 0): 0.25 µg/mL
MIC ([1]; [PMBN] MIC/5): 0.25 µg/mL
MIC ([1]; [PMBN] MIC/8): 0.5 µg/mL
MIC ([1]; [PMBN] MIC/10): 0.5 µg/mL
MIC ([2]; [PMBN] 0): 0.03 µg/mL
MIC ([2]; [PMBN] MIC/5): 0.03 µg/mL
MIC ([2]; [PMBN] MIC/8): 0.06 µg/mL
MIC ([2]; [PMBN] MIC/10): 0.06 µg/mL
MIC ([3]; [PMBN] 0, Table 4a): >32
MIC ([3]; [PMBN] 100, Table 4a): >32
MIC ([3]; [PMBN] 200, Table 4a): >32
MIC ([3]; [PMBN] 300, Table 4a): >32
MIC ([4]; [PMBN] 0, Table 4a): 1.5 µg/mL
MIC ([4]; [PMBN] 100, Table 4a): 1.5 µg/mL
MIC ([4]; [PMBN] 200, Table 4a): 0.75 µg/mL
MIC ([4]; [PMBN] 300, Table 4a): 0.75 µg/mL
MIC ([5]; [PMBN] 0, Table 4a): 3 µg/mL
MIC ([5]; [PMBN] 100, Table 4a): 3 µg/mL
MIC ([5]; [PMBN] 200, Table 4a): 2 µg/mL
MIC ([5]; [PMBN] 300, Table 4a): 1.5 µg/mL
MIC ([6]; [PMBN] 0, Table 4a): 3 µg/mL
MIC ([6]; [PMBN] 100, Table 4a): 3 µg/mL
MIC ([6]; [PMBN] 200, Table 4a): 3 µg/mL
MIC ([6]; [PMBN] 300, Table 4a): 3 µg/mL
MIC ([7]; [PMBN] 0, Table 4a): 6 µg/mL
MIC ([7]; [PMBN] 100, Table 4a): 2 µg/mL
MIC ([7]; [PMBN] 200, Table 4a): 1.5 µg/mL
MIC ([7]; [PMBN] 300, Table 4a): 1 µg/mL
MIC ([8]; [PMBN] 0, Table 4a): >32
MIC ([8]; [PMBN] 100, Table 4a): 12
MIC ([8]; [PMBN] 200, Table 4a): 4
MIC ([8]; [PMBN] 300, Table 4a): 3
MIC ([9]; [PMBN] 0, Table 4a): 4
MIC ([9]; [PMBN] 100, Table 4a): 4
MIC ([9]; [PMBN] 200, Table 4a): 2
MIC ([9]; [PMBN] 300, Table 4a): 4
MIC ([10]; [PMBN] 0, Table 4a): 0.38 µg/mL
MIC ([10]; [PMBN] 100, Table 4a): 1.5 µg/mL
MIC ([10]; [PMBN] 200, Table 4a): 0.75 µg/mL
MIC ([10]; [PMBN] 300, Table 4a): 0.38 µg/mL
MIC ([11]; [PMBN] 0): 0.5 µg/mL
MIC ([11]; [PMBN] 50 μg/ml): 0.38 µg/mL
MIC ([11]; [PMBN] 100 μg/ml): 0.25 µg/mL
MIC ([11]; [PMBN] 150 μg/ml): 0.19 µg/mL
MIC ([11]; [PMBN] 200 μg/ml): 0.19 µg/mL
MIC ([12]; [PMBN] 0): 0.75 µg/mL
MIC ([12]; [PMBN] 50 μg/ml): 0.38 µg/mL
MIC ([12]; [PMBN] 100 μg/ml): 0.25 µg/mL
MIC ([12]; [PMBN] 150 μg/ml): 0.25 µg/mL
MIC ([12]; [PMBN] 200 μg/ml): 0.19 µg/mL
MIC ([13]; E. aerogenes EA 27 (porin−), [PMBN] 0, Table 4): 12 µg/mL
MIC ([13]; E. aerogenes EA 27 (porin−), [PMBN] 50 μg/ml): 6 µg/mL
MIC ([13]; E. aerogenes EA 27 (porin−), [PMBN] 100 μg/ml): 3 µg/mL
MIC ([13]; E. aerogenes EA 27 (porin−), [PMBN] 150 μg/ml): 3 µg/mL
MIC ([13]; E. aerogenes EA 27 (porin−), [PMBN] 200 μg/ml): 3 µg/mL
MIC ([13]; EA 27 (porin−), [PMBN] 0, Table 2): 8 µg/mL
MIC ([13]; EA 27 (porin−), [PMBN] MIC/5): 0.03 µg/mL
MIC ([13]; EA 27 (porin−), [PMBN] MIC/8): 0.06 µg/mL
MIC ([13]; EA 27 (porin−), [PMBN] MIC/10): 8 µg/mL
MIC ([14]; E. aerogenes EA 5 (porin−), [PMBN] 0, Table 4): 6 µg/mL
MIC ([14]; E. aerogenes EA 5 (porin−), [PMBN] 50 μg/ml): 4 µg/mL
MIC ([14]; E. aerogenes EA 5 (porin−), [PMBN] 100 μg/ml): 4 µg/mL
MIC ([14]; E. aerogenes EA 5 (porin−), [PMBN] 150 μg/ml): 4 µg/mL
MIC ([14]; E. aerogenes EA 5 (porin−), [PMBN] 200 μg/ml): 3 µg/mL
MIC ([14]; EA 5 (porin−), [PMBN] 0, Table 2): 4 µg/mL
MIC ([14]; EA 5 (porin−), [PMBN] MIC/5): 2 µg/mL
MIC ([14]; EA 5 (porin−), [PMBN] MIC/8): 2 µg/mL
MIC ([14]; EA 5 (porin−), [PMBN] MIC/10): 2 µg/mL
MIC ([15]; [PMBN] 0, Table 4a): > 32 µg/mL
MIC ([15]; [PMBN] 100, Table 4a): > 32 µg/mL
MIC ([15]; [PMBN] 200, Table 4a): > 32 µg/mL
MIC ([15]; [PMBN] 300, Table 4a): > 32 µg/mL
MIC ([16]; [PMBN] 0, Table 4a): 24 µg/mL
MIC ([16]; [PMBN] 100, Table 4a): > 32 µg/mL
MIC ([16]; [PMBN] 200, Table 4a): > 32 µg/mL
MIC ([16]; [PMBN] 300, Table 4a): 6 µg/mL
MIC ([17]; [PMBN] 0, Table 4a): 6 µg/mL
MIC ([17]; [PMBN] 100, Table 4a): 8 µg/mL
MIC ([17]; [PMBN] 200, Table 4a): 12 µg/mL
MIC ([17]; [PMBN] 300, Table 4a): 12 µg/mL
MIC ([18]; [PMBN] 0, Table 4a): 1.5
MIC ([18]; [PMBN] 100, Table 4a): 0.75
MIC ([18]; [PMBN] 200, Table 4a): 0.5-0.75
MIC ([18]; [PMBN] 300, Table 4a): 0.5-1
MIC ([19]; [PMBN] 0, Table 4a): 0.38 µg/mL
MIC ([19]; [PMBN] 100, Table 4a): 0.38 µg/mL
MIC ([19]; [PMBN] 200, Table 4a): 0.38 µg/mL
MIC ([19]; [PMBN] 300, Table 4a): 0.38 µg/mL
